# Measurements from paper PMC4421842 (Nature Communications, 2015).
# Values joined by “and” are separate entries in the source; they are usually repeats but may differ in a detail not shown here. Equal values may be shown once. “Also recorded” adds a separate entry of the source. Read-outs that look alike come from different tables or passages of the source.
# Assays:
# [1] = system: WT S. aureus (ATCC 29213, WT); experiment: microbe, parasite or virus in culture; assay type: cell-based; conditions: WT GyrA and WT ParC, three independent replicates
# [2] = system: MRSA clinical isolates; experiment: microbe, parasite or virus in culture; assay type: cell-based, S. aureus; conditions: for MIC: Staphylococcus aureus, MRSA
# How it was run: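 Broth microdilution per CLSI guidelines in Mueller Hinton broth, run in triplicate against clinical MRSA isolates.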
# [3] = system: E. faecalis; experiment: microbe, parasite or virus in culture; assay type: cell-based; conditions: E. faecalis
# [4] = system: E. faecium; experiment: microbe, parasite or virus in culture; assay type: cell-based; conditions: Enterococcus faecium, E. faecium
# [5] = system: Ent. Spp.; experiment: MIC, microdilution broth, Ent. Spp. VRE clinical isolate; assay type: cell-based; conditions: Enterococcus, C28036, gyrA Ser83Ile, parC Ser80Ile
# From the text: (§1) MRSA and P. aeruginosa isolates were from Cubist Pharmaceuticals (Lexington, MA). VRE isolates were from a previously published collection. E. coli strains were obtained either from ATCC or Professor Cari Vanderpool (UIUC). A. baumannii isolates were obtained from Dr John Quale[51].
# (§2) Mueller Hinton (MH) broth was used.
# [6] = system: VRE clinical isolates; experiment: MIC, VRE clinical isolates panel (summary by GyrA mutation); assay type: cell-based, Enterococcus; conditions: for MIC: Enterococcus, VRE
# From the text: as §1, §2
# [7] = system: E. coli; experiment: microbe, parasite or virus in culture; assay type: cell-based; conditions: Escherichia coli, ATCC25922, E. coli ATCC 25922; gyrA none, parC none
# From the text: as §1, §2
# [8] = system: P. aeruginosa; experiment: MIC, microdilution broth, P. aeruginosa; assay type: cell-based
# From the text: as §1, §2
# [9] = system: A. baumannii; experiment: MIC, microdilution broth, A. baumannii; assay type: cell-based
# From the text: as §1, §2
# [10] = target: T1, WT E. coli DNA gyrase (Escherichia coli, UniProt P0AES4+P0AES6); assay type: biochemical; conditions: DNA cleavage assay
# T1 construct: His tag (pTRCHisA vector; purified on Ni-NTA); made in house; host or cells: E. coli One Shot BL21 Star (DE3)
# [11] = target: T2, S83R E. coli DNA gyrase (Escherichia coli, UniProt P0AES4+P0AES6, S83R); assay type: biochemical; conditions: DNA cleavage assay
# T2 construct: His tag (pTRCHisA vector; purified on Ni-NTA); made in house; host or cells: E. coli One Shot BL21 Star (DE3)
# [12] = system: resistant strains of ATCC 29213; experiment: microbe, parasite or virus in culture; assay type: cell-based, S. aureus; conditions: Staphylococcus aureus
# [13] = system: S. aureus (ATCC 29213); experiment: Resistant mutant generation (resistance frequency); assay type: cell-based; conditions: development of DNM resistance in high-level CIP-resistant strains
# [14] = Pharmacokinetic assessment; assay type: in vivo, C57BL/6 mice; conditions: for Cmax: female, C57BL/6, mouse
# Procedure: (§3) The animal studies (PK, in-vivo toxicity and in-vivo efficacy) were carried out in strict accordance with the recommendations in the Guide for the Care and Use of Laboratory Animals of the National Institutes of Health. […] In these studies, 10- to 12-week-old female C57BL/6 mice purchased from Charles River were used. DNM, DNM-2 and DNM-3 were formulated as slurries at 8.3 mg ml^−1 in 25% Cremophor RH40/water (v/v). Before beginning the pharmacokinetic assessment, mice were first tested for their ability to tolerate the DNM, DNM-2 and DNM-3 at 50 mg kg^−1 (p.o.). […] At specified time points, mice were killed and blood was collected, centrifuged and the serum was frozen at −80 °C until analysis. The proteins in a 50-μl aliquot of serum were precipitated by the addition of 50 μl of acetonitrile and the sample was centrifuged to remove the proteins. Serum concentrations of DNM, DNM-2 and DNM-3 were determined by HPLC. PK parameters were determined using GraphPad Prism Version 5.00 for Windows.
# [15] = Tolerability in mice (maximal tolerated dose); assay type: in vivo
# Procedure: as §3
# [16] = physchem; conditions: pH 7.4
# Procedure: Three independent replicates of each compound were performed.
compound,measurement,setting,value
"Cc1cc(=O)n(C)c2c3c4c(cc12)c(C)cc(=O)n4CO3 [DNM, deoxynybomycin]",MIC against S. aureus 29213,[1]; ATCC 29213,modest activity and 2 μg ml^−1
same,MIC,"[1]; Staphylococcus aureus, ATCC29213, ATCC 29213, read-out: MIC against S. aureus 29213",> 1 µg/mL
same,MIC,"[2]; strain SAU.1118, read-out: MIC",1 µg/mL
same,MIC,"[2]; strain SAU.2996, read-out: MIC",0.25 µg/mL
same,MIC,"[2]; strain SAU.3017, read-out: MIC",1 µg/mL
same,MIC,"[2]; strain SAU.3021, read-out: MIC",0.031 µg/mL
same,MIC,"[2]; strain SAU.3025, read-out: MIC",0.031 µg/mL
same,MIC,"[2]; strain SAU.419, read-out: MIC",0.125 µg/mL
same,MIC,"[2]; strain SAU.42, read-out: MIC",1 µg/mL
same,MIC,"[2]; strain SAU.446, read-out: MIC",0.25 µg/mL
same,MIC,[2]; strain SAU.447,0.063 µg/mL
same,MIC,"[2]; strain SAU.492, gyrA Ser84Leu, parC Ser80Tyr",0.063 µg/mL
same,MIC,"[2]; strain SAU.493, gyrA Ser84Leu, parC Ser80Phe",0.063 µg/mL
same,MIC,"[2]; strain SAU.494, gyrA Ser84Leu, parC Ser80Phe",0.063 µg/mL
same,MIC,"[2]; strain SAU.495, gyrA Ser84Leu, parC Ser80Phe",0.063 µg/mL
same,MIC,"[2]; strain SAU.496, gyrA Ser84Leu, parC Ser80Phe",0.063 µg/mL
same,MIC,"[2]; strain SAU.555, read-out: MIC",0.125 µg/mL
same,MIC,"[2]; strain SAU.708, gyrA Ser84Leu, parC Ser80Phe Glu84Lys",0.063 µg/mL
same,MIC,"[2]; strain SAU.709, gyrA Ser84Leu, parC Ser80Tyr Glu84Gly",0.063 µg/mL
same,MIC,"[2]; strain SAU.846, read-out: MIC",0.031 µg/mL
same,Sensitivity of MRSA clinical isolates,[2]; panel of MRSA clinical isolates (n=21),sensitive
same,MIC,"[3]; ATCC 29212, gyrA WT, parC WT",> 1 µg/mL
same,MIC,"[3]; Enterococcus faecalis, ATCC19433, ATCC 19433, gyrA WT, parC WT",> 1 µg/mL
same,MIC,"[3]; Enterococcus faecalis, ATCC29212, ATCC 29212, gyrA WT, parC WT",> 1 µg/mL
same,MIC,"[3]; Enterococcus faecalis, S206, gyrA Ser83 Arg, parC Ser80Ile",1 µg/mL
same,MIC,"[4]; C21190, gyrA Ser83 Arg, parC Ser80Ile",> 1 µg/mL
same,MIC,"[4]; C27282, gyrA Ser83 Arg, parC Ser80Arg",> 1 µg/mL
same,MIC,"[4]; S34, gyrA Ser83Ile, parC Ser80 Arg",1 µg/mL
same,MIC,"[4]; S226, gyrA Ser83Ile, parC Ser80Ile",0.25 µg/mL
same,MIC,"[4]; S235, gyrA Ser83Ile, parC Ser80Ile",0.125 µg/mL
same,MIC,"[4]; S344, gyrA Ser83Ile, parC Ser80Ile",0.25 µg/mL
same,MIC,"[4]; S557, gyrA Ser83Ile, parC Ser80Ile",0.25 µg/mL
same,MIC,"[4]; U63, gyrA Ser83 Arg, parC Ser80Ile",1 µg/mL
same,MIC,"[4]; U275, gyrA Ser83Cys Glu87Gly, parC Ser80Ile",1 µg/mL
same,MIC,"[4]; U464, gyrA Ser83 Arg, parC Ser80Ile",1 µg/mL
same,MIC,"[4]; U503, gyrA Ser83 Arg, parC Ser80Ile",> 1 µg/mL
same,MIC,"[4]; U563, gyrA Ser83 Arg, parC Ser80Ile",> 1 µg/mL
same,MIC,[5],0.25 µg/mL
same,MIC,[6]; VRE harbouring the S83I mutation in GyrA,0.125 to 1 µg/mL
same,MIC,[6]; VRE with the S83R mutation in GyrA,≥ 1 µg/mL
same,Sensitivity of VRE clinical isolates,[6]; panel of VRE clinical isolates (n=22),sensitive
same,MIC,[7],> 4 µg/mL
same,activity against wild-type (WT) or FQR P. aeruginosa,[8],no detectable activity
same,MIC,[8]; PA1586 (CIP resistant clinical isolate),> 4 µg/mL
same,MIC,"[8]; Pseudomonas aeruginosa, P. aeruginosa PAO1, read-out: MIC",> 4 µg/mL
same,MIC,"[8]; Pseudomonas aeruginosa, read-out: MIC",> 4 µg/mL
same,activity against wild-type (WT) or FQR Acinetobacter baumannii,[9],no detectable activity
same,MIC,"[9]; A. baumannii KB304, gyrA S83L",> 4 µg/mL
same,MIC,[9]; Acinetobacter baumannii,> 4 µg/mL
same,MIC,"[9]; Acinetobacter baumannii, ATCC19606, A. baumannii ATCC 19606, read-out: MIC",> 4 µg/mL
same,inhibition of WT DNA gyrase (increase in L or OC DNA),[10],poor inhibitors of WT DNA gyrase
same,inhibition of S83R DNA gyrase,[11],buildup of OC DNA similar to that seen with S83L DNA gyrase only at a slightly higher concentration or longer time points
same,MIC,"[12]; ATCC29213, high-level CIP-resistant strains, second step, S84L mutation in GyrA",0.03 to 0.06 µg/mL
same,MIC,"[12]; ATCC29213, low-level CIP-resistant strains, first step, WT gyrA, mutation in ParC (for example E84K or S80F)",> 1 µg/mL
same,MIC,"[12]; ATCC29213, resistance cycle strain, WT gyrA, WT parC (Fig. 4a)",> 1 µg/mL
same,resistance frequencies,[13],1 × 10^−10 to 7 × 10^−10
same,Cmax,"[14]; C57/BL6 mice, 50 mg kg-1 oral gavage, serum, read-out: Cmax",< 60 ng/mL
same,Cmax,"[14]; mice, 50 mg kg^−1 oral dose, serum, read-out: Cmax (peak serum concentration)",< 200 nM
same,oral bioavailability / serum exposure,"[14]; mice, 50 mg kg^−1 oral dose",very low serum exposure; also recorded: not absorbed to any appreciable degree
same,Cmax (peak serum concentration),"[14]; mice, 50 mg kg^−1 oral dose, serum",< 60 ng/mL
same,tolerability,"[15]; increasing doses, highest dose evaluated 50 mg kg^−1 by oral gavage",well tolerated up to the highest dose evaluated
same,maximal tolerated dose,[15]; oral gavage,> 50 mg/kg
same,solubility at 1 h,[16],9 µM
